Reference: patent publication US20250222063A1, “TOPICAL FORMULATION FOR USE IN THE TREATMENT OR PREVENTION OF DRY ITCHY SKIN” (MC2 THERAPEUTICS LTD, priority 2022, published 2025)
Residues, ends and D or L forms follow the SMILES beside them.

Assays:
[1] = test system: bovine serum albumin (BSA); experiment: In vitro protein carbamylation assay (14C-potassium cyanate, scintillation counting); type: biochemical; details: for Degree of carbamylation (% relative to HBSS control): 10 mM nucleophile, 75 μM BSA, 25 μM 14C-Potassium Cyanate, 37° C., 72 hours, n=3; for scavenger potential: summary in words
Protocol: The tests were performed as described below. 200 μL of a 0.5% BSA solution, 200 μL of test solution and 100 μL of a 5 μCi/mL 14 C-Potassium Cyanate solution was mixed in an Eppendorf tube (corresponding to a final concentration of 75 μM BSA, 25 μM 14 C-Potassium Cyanate, and 10 mM nucleophile). Samples run in triplicates (n=3). The Eppendorf tubes were incubated at 37° C. for 72 hours.
After incubation a volume of 100 μL of each sample was transferred to a new Eppendorf tube containing 100 μL of a 10% trichloroacetic acid (TCA) and kept at 4° C. overnight (for precipitation of BSA). Subsequently, the precipitated BSA was separated from the buffer by centrifugation (10000 rpm, 30 seconds). The supernatant was removed and the BSA pellet 10 was resuspended in 200 μL of a 10% solution of cold TCA (4° C.). The pellet was recovered by centrifugation (10000 rpm, 30 seconds) and supernatant was discarded. The BSA pellet was resuspended in 100 μL purified water (MilliQ) and transferred to a scintillation vial. The Eppendorf tube (previously containing the BSA pellet) was rinsed with an additional 100 μL purified water which al was transferred to the relevant scintillation vial.

[2] = Skin homogenate study (degradation half-life, LC-MS/MS); type: in vitro ADME, human; details: for Half life in skin homogenate: pooled human skin homogenate, 37° C., compound working solution 40 μg/mL mixed with equal volume of homogenate; for degradation: summary in words, given as in vivo
Protocol: To identify which of the dipeptides was readily subject to degradation by proteases and other cell processes in the skin, a number of compounds where tested in a skin homogenate study as described below and the results are listed in table 3.
Dermatomed human skin from multiple skin donors was pooled, homogenized, and adjusted to a tissue concentration of 100 mg tissue per mL of homogenate. The homogenate was used immediately following preparation without any additional freeze/thaw cycles. Working solutions of each compound were prepared in Dulbecco's phosphate-buffered saline (DPBS) at 40 μg/mL. All solutions were pre-heated to 37° C. Equal volumes of skin homogenate and compound working solution were combined, mixed, held at 37° C., and sampled at 0, 15, 30, 60, 120, and 240 minutes. Samples were quenched with acidic acetonitrile, centrifuged, and prepared for LC-MS/MS analysis. Peak areas of each compound at each time-point were determined by LC-MS/MS.
The individual half-life of each dipeptide was determined.
The nature of the experiment should be considered indicative of the relative stability of each of the compounds rather than an absolute correlation to what would happen in vivo. The process of homogenizing the skin is likely to greatly accelerate the degradation. However, it is clear that there is substantial variation in the relative rates for each dipeptide. (See Table 3)

[3] = ACD/Labs calculated Log P; details: summary in words, judged from Log P
Excerpt: It is well known in the art that compounds for a given molecular weight with more extreme Log P values are less likely to permeate the skin barrier well. Whether that be extremely hydrophilic (Log P<−2) or extremely hydrophobic (Log P>2) (16).). All of the dipeptides have a molecular weight below 400 therefore a good approximation of their relative permeation potential is their Log P. According to the ACD/Labs calculated Log P values Ala-Gln is the one of the most hydrophilc in nature with a Log P of −4.4.

[4] = Aqueous stability in HBSS buffer at 40° C. (HPLC-UV); type: physicochemical; details: for 1 month aqueous stability at 40° C. / 3 month aqueous stability at 40° C.: 3% wt/wt or 0.4% wt/wt in HBSS buffer, glass vials, HPLC-UV, in % (unit assumed); for aqueous stability: summary in words
Protocol: An important aspect of formulating a stable topical product. Data in Table 4 below gives 1 month and 3 month stability data at 40° C. Compounds were dissolved at 3% wt/wt or 0.4% wt/wt (if 3% was not possible) in HBSS buffer and stored in glass vials at temperature. Samples were subsequently analyzed by HPLC-UV.

[5] = Solubility (stated in words); type: physicochemical; details: summary in words

Row | Compound | Degree of carbamylation (% relative to HBSS control) [1] | scavenger potential [1] | Half life in skin homogenate [2] [min] | degradation [2] | transdermal penetration potential [3] | 1 month aqueous stability at 40° C. [4] | 3 month aqueous stability at 40° C. [4] | aqueous stability [4] | solubility [5]
1 | C[C@H](N)C(=O)N[C@@H](CCC(N)=O)C(=O)O [Ala-Gln] (H-Ala-Gln-OH) | 34.8 % relative to HBSS control | good | <5 | rapid | poor | 100.6 | 100.1 | good | good
2 | C[C@H](N)C(=O)N[C@@H](CCC(=O)O)C(=O)O [Ala-Glu] (H-Ala-Glu-OH) | 20.4 % relative to HBSS control | good | 39 | rapid | poor | 99.1 | 99.0 | good | good
3 | NCC(=O)N[C@@H](CCCN=C(N)N)C(=O)O [Gly-Arg] (H-Gly-Arg-OH) |  | good | 45 | rapid | poor |  |  | good | good
4 | C[C@H](NC(=O)[C@@H](N)Cc1ccc(O)cc1)C(=O)O [Tyr-Ala] | 26.1 % relative to HBSS control |  | 50 |  |  | 100.4 | 94.0 |  | 
5 | CC(C)[C@H](N)C(=O)N1CCC[C@H]1C(=O)O [Val-Pro] (H-Val-Pro-OH) | 22.1 % relative to HBSS control |  | 39 |  |  | 90.5 | 80.9 |  | 
6 | CC(C)[C@H](N)C(=O)N[C@@H](Cc1ccc(O)cc1)C(=O)O [Val-Tyr] (H-Val-Tyr-OH) | 28.9 % relative to HBSS control |  | <7.5 |  |  | 100.7 | 98.2 |  | 
